In assay [1] the target is T1, Human α3β2 (Homo sapiens, UniProt P17787+P32297).
T1 construct: expressed in transfected cells; host or cells: Xenopus laevis oocytes injected with subunit cRNAs
Put plainly: Voltage clamp of Xenopus oocytes expressing human α3β2 nAChR. It is filed as cell-based. The procedure: (§1) Mature (>9 cm) female Xenopus laevis African frogs (NASCO, Ft. Atkinson, Wis.) were used as a source of oocytes. Prior to surgery, frogs were anesthetized by placing the animal in a 1.5 g/l solution of MS222 (3-aminobenzoic acid ethyl ester) for 30 minutes. Oocytes were removed from an incision made in the abdomen.
(§2) In order to remove the follicular cell layer, harvested oocytes were treated with 1.25 mg/ml collagenase from Worthington Biochemical Corporation (Freehold, N.J.) for 2 hours at room temperature in calcium-free Barth's solution (88 mM NaCl, 10 mM HEPES pH 7.6, 0.33 mM MgSO4, 0.1 mg/ml gentamicin sulfate). Subsequently, stage 5 oocytes were isolated and injected with 50 nl (5-20 ng) each of the appropriate subunit cRNAs. Recordings were made 2 to 15 days after injection.
(§3) After linearization and purification of cloned cDNAs, RNA transcripts were prepared in vitro using the appropriate mMessage mMachine kit from Ambion Inc. (Austin, Tex.).
(§4) Electrophysiology. The majority of experiments were conducted using OpusXpress 6000A (Axon Instruments, Union City Calif.). OpusXpress is an integrated system that provides automated impalement and voltage clamp of up to eight oocytes in parallel. Cells were automatically perfused with bath solution, and agonist solutions were delivered from a 96-well plate. Both the voltage and current electrodes were filled with 3 M KCl. The agonist solutions were applied via disposable tips, which eliminated any possibility of cross-contamination. Drug applications alternated between ACh controls and experimental applications. Flow rates were set at 2 ml/min for experiments with α7 receptors and 4 ml/min for other subtypes. Cells were voltage-clamped at a holding potential of −60 mV. Data were collected at 50 Hz and filtered at 20 Hz. Agonist applications were 12 seconds in duration followed by 181-second washout periods for α7 receptors and 8 seconds with 241-second wash periods for other subtypes. For some experiments, particularly under conditions where residual inhibition precluded making repeated measurements from single cells (see below), manual oocyte recordings were made as previously described (Papke and Papke Br J of Pharmacol, 2002, 137:49-61). In brief, Warner Instruments (Hamden, Conn.) OC-725C oocyte amplifiers were used, and data were acquired with a minidigi or digidata 1200A with pClamp9 software (Axon Instruments). Sampling rates were between 10 and 20 Hz and the data were filtered at 6 Hz. Cells were voltage clamped at a holding potential of −50 mV.
Experimental protocols and data analysis. Each oocyte received two initial control applications of ACh, an experimental drug application (or co-application of ACh and TMPH), and then follow-up control application(s) of ACh. The control ACh concentrations for α1β1γδ, α3β4, α4β2, α3β2, α3β2α5, α3β2β3, α6/3β2β3 α6β4β3 and α7, receptors were 30 μM, 100 μM, 10 μM, 30 μM, 1 μM 100 μM 100 μM 100 μM and 300 μM, respectively. In other experiments (Papke et al. J. Neurochem., 2000, 75:204-216; Papke and Papke Br J of Pharmacol, 2002, 137:49-61) these concentrations were determined to be the EC74, EC15, EC22, EC17, EC40, EC70, EC55, EC70 and EC100, respectively. […]
Responses to experimental drug applications were calculated relative to the preceding ACh control responses in order to normalize the data, compensating for the varying levels of channel expression among the oocytes. […]

In assay [2] the target is T2, Rat α6β4β3 (Rattus norvegicus, UniProt P12391+P12392+P43143).
T2 construct: oocytes expressing the complete wild-type α6 subunits were tested; expressed in transfected cells; host or cells: Xenopus laevis oocytes injected with subunit cRNAs; clones from Dr. Jim Boulter (UCLA)
In words: Voltage clamp of Xenopus oocytes expressing α6β4β3 nAChR. It is filed as cell-based. The protocol:
as §1, §2
Rat neuronal nAChR clones and mouse muscle nAChR cDNA clones were used. The wild-type clones were obtained from Dr. Jim Boulter (UCLA). The rat α6/3 (Dowell et al. J Neurosci, 2003, 23:8445-8452) clone was obtained from Michael McIntosh (University of Utah) and expressed in Xenopus oocytes in combinations with rat β2 and β3. […] The TM2 domain is understood to line the pore of the channel, with alpha helix structure. The 7′ position may actually be directed away from the actual pore lining, but this residue is highly conserved in all of the nAChR. It is valine in all of them except α9 (isoleucine) and β1, where it is alanine. The TM2 mutation in the α6/3 chimera was corrected by using QuickChange (Stratagene) according to their protocols. The corrected α6/3 chimera sequence was confirmed by restriction diagnostics and by automated fluorescent sequencing (University of Florida core facility). The corrected clone was expressed as above in Xenopus oocytes with β2 and β3 and compared to the wild-type α3 co-expressed with β2 and β3.
as §3
as §4, with “Cells were voltage clamped at a holding potential of −50 mV.” left out

Where [3] appears, read: inhibition still present after 5-minute wash, read-out: IC50 (recovery).

Like-named read-outs stand apart in the source and are kept apart here.

T1 sequence (P32297 32-505): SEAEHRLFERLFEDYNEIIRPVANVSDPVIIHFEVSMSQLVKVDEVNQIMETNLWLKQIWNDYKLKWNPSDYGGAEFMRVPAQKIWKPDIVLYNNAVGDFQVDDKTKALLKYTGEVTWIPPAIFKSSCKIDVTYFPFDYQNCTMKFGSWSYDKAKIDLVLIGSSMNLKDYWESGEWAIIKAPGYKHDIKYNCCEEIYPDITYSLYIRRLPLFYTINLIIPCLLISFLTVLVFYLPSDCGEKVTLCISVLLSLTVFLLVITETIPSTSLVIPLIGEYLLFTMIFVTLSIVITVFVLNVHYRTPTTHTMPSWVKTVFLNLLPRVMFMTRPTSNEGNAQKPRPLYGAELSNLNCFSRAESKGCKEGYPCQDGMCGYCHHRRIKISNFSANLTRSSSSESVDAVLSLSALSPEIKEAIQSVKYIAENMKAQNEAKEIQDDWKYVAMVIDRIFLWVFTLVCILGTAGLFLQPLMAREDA
T1 sequence (P17787 26-502): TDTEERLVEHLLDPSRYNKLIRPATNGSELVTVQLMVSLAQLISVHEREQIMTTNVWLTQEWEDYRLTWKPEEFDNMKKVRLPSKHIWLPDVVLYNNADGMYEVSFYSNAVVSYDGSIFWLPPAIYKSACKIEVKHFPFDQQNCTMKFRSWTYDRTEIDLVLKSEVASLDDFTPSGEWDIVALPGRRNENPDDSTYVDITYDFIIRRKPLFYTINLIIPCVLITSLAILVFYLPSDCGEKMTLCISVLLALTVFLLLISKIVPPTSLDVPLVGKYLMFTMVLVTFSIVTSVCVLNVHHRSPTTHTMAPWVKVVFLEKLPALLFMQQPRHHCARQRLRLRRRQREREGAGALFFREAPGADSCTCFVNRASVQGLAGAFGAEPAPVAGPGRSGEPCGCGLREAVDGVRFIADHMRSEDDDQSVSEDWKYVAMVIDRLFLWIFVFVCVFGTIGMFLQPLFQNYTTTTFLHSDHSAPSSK
T2 sequence (P43143 31-493): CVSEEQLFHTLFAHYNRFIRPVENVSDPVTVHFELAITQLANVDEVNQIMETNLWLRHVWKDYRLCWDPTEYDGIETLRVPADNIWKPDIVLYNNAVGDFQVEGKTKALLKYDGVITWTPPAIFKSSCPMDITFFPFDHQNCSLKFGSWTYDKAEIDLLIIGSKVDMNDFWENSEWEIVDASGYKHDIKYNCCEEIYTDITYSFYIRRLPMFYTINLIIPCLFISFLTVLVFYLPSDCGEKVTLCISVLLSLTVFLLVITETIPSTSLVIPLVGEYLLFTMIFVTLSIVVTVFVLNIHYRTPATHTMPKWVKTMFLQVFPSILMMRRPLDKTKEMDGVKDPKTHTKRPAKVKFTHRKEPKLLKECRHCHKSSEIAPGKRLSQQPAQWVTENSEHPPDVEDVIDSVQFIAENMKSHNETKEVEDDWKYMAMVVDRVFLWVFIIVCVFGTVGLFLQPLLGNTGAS
T2 sequence (P12392 21-495): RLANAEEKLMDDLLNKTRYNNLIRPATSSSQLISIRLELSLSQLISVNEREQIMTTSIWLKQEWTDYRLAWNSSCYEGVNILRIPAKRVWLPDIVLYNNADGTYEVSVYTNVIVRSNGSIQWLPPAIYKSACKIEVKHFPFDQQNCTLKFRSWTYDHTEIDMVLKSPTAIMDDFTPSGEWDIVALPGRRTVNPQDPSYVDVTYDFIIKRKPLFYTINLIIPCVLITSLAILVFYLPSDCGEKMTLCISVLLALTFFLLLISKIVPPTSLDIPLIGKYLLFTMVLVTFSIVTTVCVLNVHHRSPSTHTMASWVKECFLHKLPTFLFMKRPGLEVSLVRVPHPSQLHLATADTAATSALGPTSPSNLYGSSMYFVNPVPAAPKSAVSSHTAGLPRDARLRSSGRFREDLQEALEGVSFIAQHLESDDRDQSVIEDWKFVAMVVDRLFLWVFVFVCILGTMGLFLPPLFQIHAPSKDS
T2 sequence (P12391 31-464): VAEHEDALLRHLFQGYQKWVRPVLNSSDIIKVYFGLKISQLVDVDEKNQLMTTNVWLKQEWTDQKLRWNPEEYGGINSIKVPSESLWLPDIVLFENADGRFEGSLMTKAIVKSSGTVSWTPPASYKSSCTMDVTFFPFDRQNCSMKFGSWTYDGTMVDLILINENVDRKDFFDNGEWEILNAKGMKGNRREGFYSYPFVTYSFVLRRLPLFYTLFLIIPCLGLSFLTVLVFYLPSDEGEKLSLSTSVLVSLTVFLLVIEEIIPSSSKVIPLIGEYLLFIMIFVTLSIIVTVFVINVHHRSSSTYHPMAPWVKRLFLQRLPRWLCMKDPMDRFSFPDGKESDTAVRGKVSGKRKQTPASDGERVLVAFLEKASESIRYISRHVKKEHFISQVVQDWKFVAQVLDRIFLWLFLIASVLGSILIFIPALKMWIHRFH

As a reminder, the IC50 is the concentration that inhibits the measured activity by half. As for `CCCCCCC(=O)OC1CC(C)(C)NC(C)(C)C1` [TMPH, 2,2,6,6-tetramethylpiperidin-4-yl heptanoate], the half-maximal inhibitory concentration (IC50) stood at 0.46 ± 0.17 µM in assay [1] (decrease in net charge, 30 μM ACh co-applied with TMPH, read-out: IC50 (area)); 3.7 ± 1.2 µM in assay [1] (decrease in peak current amplitude, 30 μM ACh co-applied with TMPH, read-out: IC50 (peak)); 0.4 ± 0.12 µM in assay [1] (setting [3]); 18.3 ± 4.9 µM in assay [2] (decrease in net charge, 100 μM ACh co-applied with TMPH, read-out: IC50 (area)); 11 ± 4.4 µM in assay [2] (decrease in peak current amplitude, 100 μM ACh co-applied with TMPH, read-out: IC50 (peak)); 1700 ± 420 µM in assay [2] (setting [3]). In addition, the “IC50 net charge/IC50 peak” value amounted to 0.12 in assay [1] (ratio) and 1.7 in assay [2] (ratio). Further, the “IC50 recovery/IC50 net charge” value was found to be 0.87 in assay [1] (ratio) and 93 in assay [2] (ratio).

Source of the values: patent US7531555B2, “Compositions and methods for selective inhibition of nicotine acetylcholine receptors” (University of Florida Research Foundation, Inc., priority 2003, dated 2009).
